From US6528535B2, “Bicyclic inhibitors of protein farnesyl transferase” (Warner-Lambert Company, priority 1997, dated 2003)

What was measured:
[1] = tested on: human lung carcinoma with K-ras mutation and p53 deletion; details: nude mice; cited from earlier work
[2] = tested on: mammary and salivary carcinomas; details: daily administration; ras transgenic mice; cited from earlier work
[3] = target: T1, SF9 affinity purified rat FPT (Rattus norvegicus, UniProt Q02293+Q04631); test: PFT (farnesyl protein transferase) inhibitory activity, radiolabeled farnesyl pyrophosphate / biotinyl peptide bead assay; format: biochemical; details: average of two tests unless n is given in parentheses; read-out: FTase, IC50
T1 construct: made in house; host or cells: Sf9 insect cells
Method: The protein:farnesyl transferase (PFT) or farnesyl protein transferase (FPT) inhibitory activity of compounds of the present invention were assayed in HEPES buffer (pH 7.4) containing 5 mM potassium phosphate and 20 μM ZnCl2. The solution also contained 5 mM DTT (dithiothreitol), 5 mM MgCl2, and 0.1% PEG 8000. Assays were performed in 96 well plates (Wallec) and employed solutions composed of varying concentrations of a compound of the present invention in 10% DMSO (dimethylsulfoxide). Upon addition of both substrates, radiolabeled farnesyl pyrophosphate ([1^3H], specific activity 15-30 Ci/mmol, final concentration 134 nM) and (biotinyl)-Ahe-Thr-Lys-Cys-Val-Ile-Met ([3aS[3a alpha, 4 beta, 6a alpha]-hexahydro-2-oxo-1H-thieno[3,4-d]imidazole-5-pentanoic acid]-[7-aminoheptanoic acid]-Thr-Lys-Cys-Val-Ile-Met) (Ahe is 7-aminoheptanoic acid, Thr is threonine, Lys is lysine, Cys is cysteine, Val is valine, Ile is isoleucine, and Met is methionine) (final concentration 0.2 μM), the enzyme reaction was started by addition of SF9 affinity purified rat FPT. After incubation at 30° C. for 30 minutes, the reaction was terminated by diluting the reaction 2.5-fold with a stop buffer containing 1.5 M magnesium acetate, 0.2 M H3PO4, 0.5% BSA (bovine serum albumin), and strepavidin beads (Amersham) at a concentration of 1.3 mg/mL. After allowing the plate to settle for 30 minutes at room temperature, radioactivity was quantitated on a microbeta counter (Model 1450, Wallec). The assay was also carried out without 5 mM potassium phosphate.

[4] = tested on: EJ-1 human bladder carcinoma; details: 100 mg/kg; EJ-1 human bladder carcinoma xenograft in nude mice; cited from earlier work
[5] = tested on: HT1080 human fibrosarcoma; details: 100 mg/kg; HT1080 human fibrosarcoma xenograft in nude mice; cited from earlier work
[6] = tested on: human colon carcinoma xenografts; details: 100 mg/kg; human colon carcinoma xenografts in nude mice; cited from earlier work

| Compound | IC50 [3] | melting point | further results |
| --- | --- | --- | --- |
| CSCC[C@H](NC(=O)c1ccc(NC[C@@H](N)CS)cc1-c1ccccc1)C(=O)O [FTI276] | – | – | tumor growth [1]: selectively block tumor growth |
| CC[C@H](C)[C@@H](CO[C@@H](Cc1ccccc1)C(=O)N[C@@H](CCS(C)(=O)=O)C(=O)OC(C)C)NC[C@@H](N)CS [L-744,832] | – | – | tumor regression [2]: caused tumor regression |
| Cl.O=C1CCCc2cc(OCCCc3c[nH]cn3)ccc21 [Example 43, 6-[3-(1H-Imidazole-4-yl)-propoxy]-3,4-dihydro-2H-naphthalen-1-one, hydrochloride] | 4400 nM | 153 to 155 °C | – |
| COC(=O)[C@H](CCSC)NC(=O)[C@H](/C=C\[C@@H](/C=C/[C@@H](N)CS)C(C)C)Cc1ccccc1 [Example B1086] | – | – | tumor growth [4]: inhibit tumor growth; tumor growth [5]: inhibit tumor growth; tumor growth [6]: inhibit tumor growth |
| O=C1C(=Cc2ccc(Br)cc2)CCc2cc(OCCn3ccnc3)ccc21 [Example 5, 2-(4-Bromo-benzylidene)-6-(2-imidazole-1-yl-ethoxy)-3,4-dihydro-2H-naphthalen-1-one] | 1370 nM | 152 to 153 °C | – |
| CSc1ccc(C=C2CCc3cc(OCCc4c[nH]cn4)ccc3C2=O)cc1 [Example 31, 6-[2-(1H-Imidazole-4-yl)-ethoxy]-2-(4-methylsulfanyl-benzylidene)-3,4-dihydro-2H-naphthalen-1-one] | 590 nM | 65 to 70 °C | – |
| O=c1ccoc2cc(OCCn3ccnc3)ccc12 [Example 50, 7-[2-(1H-1-Imidazolyl)ethoxy]-4H-4-chromenone] | 2600 nM | 131 to 133 °C | – |
| O=C1C(=Cc2ccc(Br)cc2)CCc2cc(OCCc3c[nH]cn3)ccc21 [Example 42, 2-(4-Bromo-benzylidene)-6-[2-(1H-imidazole-4-yl)-ethoxy]-3,4-dihydro-2H-naphthalen-1-one] | 5900 nM | 176 to 178 °C | – |
| O=C1C(=Cc2cccc3ccccc23)CCc2cc(OCCn3ccnc3)ccc21 [Example 15, 6-(2-Imidazole-1-yl-ethoxy)-2-naphthalen-1-ylmethylene-3,4-dihydro-2H-naphthalen-1-one] | 1300 nM | 147 to 148 °C | – |
| O=c1cc(-c2ccccc2)oc2cc(OCCn3ccnc3)ccc12 [Example 77, 7-[2-(1H-1-Imidazolyl)ethoxy]-2-phenyl-4H-4-chromenone] | 9300 nM | 155 to 159 °C | – |
| Cc1c(OCCn2ccnc2)ccc2c1CCCC2=O [Example 47, 6-[2-(1H-1-Imidazolyl)ethoxy]-5-methyl-1,2,3,4-tetrahydro-1-naphthalenone] | 1300 nM | 110 to 112 °C | – |
| CC1(C)CC(=O)c2ccc(OCCn3ccnc3)cc2O1 [Example 83, 7-[2-(1H-Imidazolyl)ethoxy]-2,2-dimethyl-4-chromanone] | 900 nM | 84 to 86 °C | – |

Further lines, with some results ahead:

| IC50 [3] | melting point | Compound | further results |
| --- | --- | --- | --- |
| 190 nM | 57 to 60 °C | O=C1C(=Cc2ccco2)CCc2cc(OCCc3c[nH]cn3)ccc21 [Example 41, 2-Furan-2-ylmethylene-6-[2-(1H-imidazole-4-yl)-ethoxy]-3,4-dihydro-2H-naphthalen-1-one] | – |
| 290 nM | 129 to 130.5 °C | O=C1c2ccc(OCCn3ccnc3)cc2CCC1Cc1ccc(Br)cc1 (centres unmarked) [Example 13, 2-(4-Bromo-benzyl)-6-(2-imidazole-1-yl-ethoxy)-3,4-dihydro-2H-naphthalen-1-one] | – |
| 340 nM | 193 to 195 °C | O=C(O)CON=C1CCCc2cc(OCCn3ccnc3)ccc21 [Example 54, [6-(2-Imidazol-1-yl-ethoxy)-3,4-dihydro-2H-naphthalen-1-ylideneaminooxy]-acetic acid] | – |
| 110 nM | 109 to 110 °C | O=C1C(=Cc2ccco2)CCc2cc(OCCn3ccnc3)ccc21 [Example 16, 2-Furan-2-ylmethylene-6-(2-imidazole-1-yl-ethoxy)-3,4-dihydro-2H-naphthalen-1-one] | – |
| 400 nM | 182 to 184 °C | Cc1c(OCCn2ccnc2)ccc2c1CC/C(=C\c1cccs1)C2=O [Example 48, 6-[2-(1H-1-Imidazolyl)ethoxy]-5-methyl-2-[(E)-1-(2-thienyl)methylidene]-1,2,3,4-tetrahydro-1-naphthalenone] | – |
| 320 nM | 143 to 144 °C | O=C1C(=Cc2ccc(Cl)s2)CCc2cc(OCCn3ccnc3)ccc21 [Example 18, 2-(5-Chloro-thiophen-2-ylmethylene)-6-(2-imidazole-1-yl-ethoxy)-3,4-dihydro-2H-naphthalen-1-one] | – |
